Test results: patent publication US12129279B2, “Antimicrobial peptides and use of the same for treating microbial infections” (TZU CHI UNIVERSITY, priority 2022, dated 2024)
Residues, ends and D or L forms follow the SMILES beside them. No end group written: not given here.

How the values were obtained:
Assay type in all cases: cell-based
[1] = system: MDRAB (multidrug-resistant Acinetobacter baumannii); conditions: MDRAB (multidrug-resistant, 2 h)
Protocol: (§1) The antimicrobial activities of dK1, dK2, dK3, dK4 and dK5 were determined by bactericidal assays on laboratory strains of MRSA (methicillin-resistant Staphylococcus aureus) and MDRAB (multidrug-resistant Acinetobacter baumannii).
(§2) The bacteria were inoculated in Luria broth (LB) solid medium (BioShop Canada Inc., Ontario, Canada) (Focus Bioscience, Murrarrie, Australia). Single colonies were collected and inoculated in 8 mL of liquid medium, and the cultures were incubated overnight at 37° C., 200 rpm. On the next day, the bacterial cultures were centrifuged with a centrifuger (KUBOTA2800, KUBOTA, Osakashi, Japan) at 2500 rpm for 5 minutes at room temperature, and the supernatants were discarded. The pellets were mixed and suspended with 1×PBS (phosphate-buffered saline, PBS, pH 7.4) (PROTECH, Taipei, Taiwan). The step was repeated twice to wash the bacterial cells. After the washing step, the bacterial cells were then re-suspended in 1×PBS, and the concentrations of bacterial cells were adjusted to 1×10^7 CFU/mL.
(§3) In the bactericidal assay, 2700 μL of 1× PBS were mixed with 300 μL 1×10^7 CFU/mL bacteria suspension mentioned as negative control, and each of the solutions of dK1 to dK5 at different concentrations was mixed with 300 μL 1×10^7 CFU/mL bacteria suspension and 2700 μL of 1× PBS. The mixtures were incubated at 37° C., 200 rpm for 2 hours. After incubation, 100 μL of each of the control group samples and the experimental group samples were collected and put in Eppendorf centrifuge tubes, and followed by 10-fold serial dilution with 900 μL of 1× PBS. After the serial dilution, 100 μL of the sample from each group was inoculated on the LB solid medium. The experiments were carried out in triplicate for each group, and the LB solid media with samples were cultured at 37° C. for at least 18 hours. After overnight incubation at 37° C., bacterial colonies were counted. Bacterial survival rates of each group were determined as follows. % survival rate=[(Colonies formed from peptide-treated sample)/(Colonies formed from negative control)]×100%

[2] = system: MRSA (methicillin-resistant Staphylococcus aureus); conditions: 2 h
Protocol: as §1, §2, §3

in vitro = conditions: human
Protocol: For measuring the cytotoxicity of the antimicrobial peptides dK1, dK2 and dK3, a colorimetric 3-bis-(2-methoxy-4-nitro-5-sulfophenyl)-2H-tetrazolium-5-carboxanilide (XTT) dye reduction assay was employed. The cytotoxicity of the antimicrobial peptides of the invention were tested on Huh-7 and HeLa cells. The culture medium for Huh-7 is Dulbecco's modified eagle medium, DMEM (Gibco™, NY, USA) containing 10% fetal bovine serum (FBS) (Gibco™, NY, USA) 1% non-essential amino acid solution (NEAA) (Biological Industries, Beit HaEmek, Israel) and 1% streptomycin-penicillin solution (Gibco™, NY, USA). The culture medium for HeLa cells is Minimum Essential Medium (MEM) (Gibco™, NY, USA) containing 10% FBS (Gibco™, NY, USA), 1% sodium pyruvate (Gibco™, NY, USA), 1% NEAA (Biological Industries, Beit HaEmek, Israel) and 1% streptomycin-penicillin (Gibco™, NY, USA). […] The absorbance of the samples was measured at the 4th hour, and cell viability calculated to evaluate the cytotoxicity of the antimicrobial peptides. The absorbance of the samples was measured with an ELISA reader (EPOCH™, BioTek instruments, Inc., Winooski, USA) at a wavelength of 475 nm. The absorbance value of the positive control group was regarded as 0% cell viability, and the absorbance value of the negative control group was regarded as 100% cell viability. […]

Molecule	IC50 [1] [nM]	IC50 [2] [nM]	MBC (minimum bactericidal concentration) against MRSA [2] [µM]	MBC (minimum bactericidal concentration) against MDRAB [1] [µM]	cytotoxicity at 4 h, 2 μM (in vitro) [%]
CC(C)C[C@H](NC(=O)[C@H](CCCCN)NC(=O)[C@@H]1CCCN1C(=O)CNC(=O)[C@H](Cc1ccccc1)NC(=O)[C@H](CCCCN)NC(=O)[C@H](C)NC(=O)[C@@H]1CCCN1C(=O)[C@H](Cc1ccccc1)NC(=O)[C@H](CO)NC(=O)[C@H](C)NC(=O)[C@@H]1CCCN1C(=O)[C@H](CC(C)C)NC(=O)[C@@H](N)Cc1ccccc1)C(=O)N[C@@H](Cc1ccccc1)C(=O)N[C@@H](CS)C(=O)N[C@@H](CC(C)C)C(=O)N[C@H](C(=O)N[C@H](C(=O)N[C@@H](CCCCN)C(=O)N[C@@H](CCCCN)C(=O)N[C@@H](CS)C(=O)O)[C@@H](C)O)C(C)C [dK4] (H-FLPASFPAKFGPKLFCLVTKKC-OH; N-terminus and C-terminus assumed)	8000 to 10000	–	–	–	–
FLAIPSKPLKVAKPLGFALIIL [dK5]	20000 to 25000	10000 to 15000	30 to 40	–	–
IVRRIWRAWARRVRLVARIPAV [dK1]	~167	~195	0.39 to 0.78	0.667 to 1.33	–
RLIAAWRAVIRARVRARRAPIF [dK2]	200 to 250	~390	1.56 to 3.12	0.5 to 0.6	–
RPFIVRAWRRAVARRARAILPI [dK3]	195 to 390	1560 to 3120	3.12 to 4.5	0.78 to 1.56	50
